Measurements: patent publication US7015244B1 (priority 1998, dated 2006)

How the values were obtained:
tumor = conditions: Phase II, cytotoxic doses; cited from earlier work
[1] = tested on: human epidermoid cells, virally infected with HSV-2; conditions: cited from earlier work
[2] = tested on: human epidermoid cells, virally infected with HSV-2
[3] = human, inhaled or intranasal
[4] = tested on: human epidermoid cells, virally infected with HSV-2; conditions: cited from earlier work; remark: listed apart in the source

SMILES	hematologic toxicity (tumor)	overall tumor response rate (tumor)	concentrations that did not reduce cell viability [1]	Trichothecene in Vitro Concentration, Cytotoxic Min [2] [ng/mL]	Trichothecene in Vitro Concentration, Toxic Lo [2] [ng/mL]	Trichothecene in Vitro Concentration, Cytotoxic Max ([2]; human) [ng/mL]	In Vivo Dose for Average 1200 Gram Lungs, Cytotoxic Max [3] [ng]	Trichothecene in Vitro Concentration, Inhibitory 50% [4] [ng/mL]	Trichothecene in Vitro Concentration, Inhibitory 80% [4] [ng/mL]	Trichothecene in Vitro Concentration, Inhibitory 90% [4] [ng/mL]	Trichothecene in Vitro Concentration, Inhibitory 99% [4] [ng/mL]	inhibition of hyperactive protein synthesis [4] [%]
CC(=O)OC[C@]12CCC(C)=C[C@H]1O[C@@H]1[C@H](O)[C@@H](OC(C)=O)[C@@]2(C)[C@]12CO2 [Anguidine]	considerable hematologic toxicity	low										
CC(=O)OC[C@]12CCC(C)=C[C@H]1O[C@@H]1[C@H](O)[C@@H](OC(C)=O)[C@@]2(C)[C@]12CO2 [DAS]			up to 200 ng/ml	6	201	200	240000	2.3	4.0	4.5	5.0	~99
